From the METLIN SMRT retention time set (Domingo-Almenara et al. 2019) come the findings set out here.

This series in a line: gradient 5% acetonitrile 3 min, to 50% in 2 min, to 85% in 15 min, held 3 min, 100 µL/min. Conditions: column: Zorbax Extend-C18 2.1 x 50 mm; eluents: water / acetonitrile, 0.1% formic acid. In a few lines: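 Each retention time is based on an adduct peak selected computationally and verified by manual inspection. Measurements used HPLC–quadrupole time-of-flight mass spectrometry in positive and negative ionization mode on mixtures of ~100 pure standards. Chromatography ran on a Zorbax Extend-C18 column (2.1 × 50 mm, 1.8 μm) at 100 μL/min with water and acetonitrile, each containing 0.1% formic acid, and dead and dwell volumes of 40 μL and 900 μL.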
Take `Cc1ccc(CNC(=O)N2CC(n3cc(COc4ccc(F)cc4)nn3)C2)cc1`: the RP-LC retention time was found to be 821 s.
Regarding `Cc1ccnc(OCC(=O)Nc2cc(C)on2)n1`, the RP-LC retention time worked out at 612 s.
Regarding `O=C(C1CCN(c2ncccc2-c2nc(-c3ccccc3)no2)CC1)N1CCN(c2ncccn2)CC1`, the RP-LC retention time is 967 s.
Compound `CCc1noc([C@@H]2CC(F)(F)CN2C(=O)c2ccco2)n1` returned an RP-LC retention time of 755 s.
As for `O=C(Nc1ccc(F)c(F)c1)c1cc2n(n1)CCCC2`, the RP-LC retention time was 887 s.
The figure for `O=C(CN1CCCc2nc(C3CC3)ncc2C1=O)NC1CCCCC1` is 723 s; for `Cc1ccnc(NC(=O)NCCCSc2nnc(-c3ccccc3)o2)n1` it is 727 s; for `CC(=O)Oc1ccc2c(=O)c(Oc3ccc([N+](=O)[O-])cc3)c(C)oc2c1` it is 854 s.
`O=C(NCCCN1CCCC1)c1ccc2c(c1)nnn2Cc1ccccc1` gave an RP-LC retention time of 628 s.
`COc1ccccc1CCNC(=O)C1CN(C(=O)c2c[nH]c3ccccc23)C1` yielded an RP-LC retention time of 673 s.
The figure for `Cc1c(-c2noc(C(=O)NCCCN3CCCCCC3)n2)oc2ccccc12` is 692 s.
Compound `COc1ccc(NC(=O)c2sc(-c3cn(C(C)C)c4ncccc34)nc2C)c(OC)c1` came in with an RP-LC retention time of 1030 s.
The figure for `Cc1cc2c(cc1S(=O)(=O)N1CCCC1C(=O)NCCc1ccccc1)OC(C)C(=O)N2` (stereo not given) is 792 s.
The figure for `CCc1cc(=O)n(CC(=O)Nc2ccc(OC)cc2)c(N)n1` is 595 s.
The figure for `COc1cccc(-c2nc(C3CCN(S(=O)(=O)c4cccc(Cl)c4)CC3)no2)c1` is 1160 s; for `CSc1ccc(CNC(=O)Cn2c(=O)cc(-c3nc(C)no3)c3ccccc32)cc1` it is 859 s; for `CC(C)NC(=O)N1[C@H]2CC[C@@H]1c1cnc(-c3ccc(F)cc3)nc1C2` it is 839 s.
`CCc1nc2c(NC(=O)c3cc(F)cc(F)c3)cccn2n1`: the RP-LC retention time was determined as 851 s.
On to `COc1ccc(S(=O)(=O)NCC2CCN(Cc3cc(C)oc3C)CC2)cc1Cl`, for which the RP-LC retention time came to 660 s.
Compound `Cn1cc(-c2ccncc2)cc1C(=O)NCc1ccccc1C(F)(F)F` registered an RP-LC retention time of 672 s.
For the compound `CCn1cc(C(=O)Nc2ccc(Br)cc2)c2nn(-c3ccccc3)c(=O)c-2c1`, the RP-LC retention time is 1090 s.
The figure for `COc1cccc(-c2noc(Cn3nc(-c4ccc5c(c4)OCO5)ccc3=O)n2)c1` is 957 s; for `COC(=O)C(C)NC(=O)NCc1cccn1Cc1ccccc1F` (stereo not given) it is 804 s.
As for `Cc1nc2nc(-c3ccc(C(C)(C)C)cc3)nn2c(C)c1CC(=O)N(CCO)Cc1ccccc1`, the figure is 982 s; as for `Cc1c(C(=O)N2CCCCC2C)sc2ncn(CC(=O)N3CC(C)CC(C)C3)c(=O)c12` (stereo not given), 846 s.
Compound `CCOc1ccc(NC(=O)c2cccc3ccccc23)c([N+](=O)[O-])c1` registered an RP-LC retention time of 1050 s.
The figure for `COCCNC(=O)CCc1cc2cc(C)ccc2[nH]c1=O` is 637 s; for `COc1ccc(-c2cc3c(=O)n(Cc4nc(-c5ccccc5)oc4C)ccn3n2)cc1OC` it is 966 s.
The figure for `Fc1ccc(-c2nnc(Cc3nc(-c4cccc(Br)c4)no3)o2)cc1` is 1090 s; for `Cc1noc(C)c1S(=O)(=O)N1CCC(n2nc(-c3ccccc3)nc2C)C1` (stereo not given) it is 806 s.
For `CCN1C(=O)C2(CCN(C(=O)c3cn(C)cn3)CC2)c2ccccc21`, the RP-LC retention time was determined as 630 s.
`COc1ccc(NC(=O)C2CCN(S(=O)(=O)c3cc(-c4noc(C5CC5)n4)cs3)CC2)cc1`: the RP-LC retention time was 960 s.
The figure for `O=C(NCCc1csc(-c2ccc(F)cc2)n1)c1ccc2nsnc2c1` is 876 s; for `COC[C@@H]1CN(C(=O)Cn2nc(C(F)(F)F)cc2C)C[C@H]1C(N)=O` it is 622 s.
With `CCCOc1ccc(-c2noc(Cc3nc(-c4ccc5c(c4)OCO5)cs3)n2)cc1`, the RP-LC retention time was 1310 s.
`O=C1C(c2cccnc2)N(c2ccc3c(c2)OCCO3)C(=O)CN1c1ccccc1` (stereo not given): the RP-LC retention time amounted to 644 s.
For the compound `Cc1ccc(Cl)cc1NC(=O)Cn1nc(N2CCOCC2)c2ccccc2c1=O`, the RP-LC retention time was 856 s.
As for `O=C(O)Cc1sc(Nc2ccccc2Cl)nc1-c1ccccc1`, the figure is 942 s; as for `Cc1ccc(NC(=O)c2cc(C3CC3)n3nccc3n2)c(C)c1`, 1110 s.
The figure for `O=C(NC1CCCCCCC1)C1CCN(C(=O)c2ccccc2F)CC1` is 855 s; for `CCOC(=O)C(C)NC(=O)N1CCN(Cc2nc3cccnc3n2-c2ccc(CC)cc2)CC1` (stereo not given) it is 659 s.
`Cc1cc(-c2c(C)sc(C)c2S(=O)(=O)NCCc2ccc(Cl)cc2)n[nH]1` gave an RP-LC retention time of 1130 s.
The figure for `CCOc1ccc(CN2CCC3(CC2)CC(O)CCO3)cc1` (stereo not given) is 593 s; for `COc1ccc2c(c1)C1(CCN(S(=O)(=O)c3ccc(Br)cc3)C1)C(=O)N2C` (stereo not given) it is 986 s; for `CCCN(C(=O)CC)c1nc(-c2ccccc2)cs1` it is 1210 s.
Consider `Cc1nc(-c2csc(S(=O)(=O)N3CCCC(C(=O)N4CCc5ccccc5C4)C3)c2)no1` (stereo not given), for which the RP-LC retention time came out at 977 s.
The figure for `CC1CCCN(c2ccn3c(=O)n(CC(=O)NCc4ccc(Cl)cc4)nc3n2)C1` (stereo not given) is 821 s; for `CCCNC(=O)c1nn(-c2ccc(OC)cc2)c(OC)cc1=O` it is 661 s.
The figure for `O=C(O)C1CCN(c2nc3ccc(-c4cncnc4)nc3s2)CC1` is 674 s.
Compound `Cn1c(=O)n(C)c2cc(N3CCOCC3)c(NC(=O)Cc3ccccc3)cc21` came in with an RP-LC retention time of 752 s.
`CC(C)c1nccn1C1CN(S(=O)(=O)c2cccc(F)c2)C1` gave an RP-LC retention time of 640 s.
The figure for `O=C(Nc1ccc2c(c1)CN(C(=O)COc1ccccc1)CCO2)C1CC1` is 752 s.
In turn, `CC(C(=O)N1CCN(C2CCCCC2)CC1)C1CCN(S(=O)(=O)c2cccs2)CC1` (stereo not given) had an RP-LC retention time of 664 s.
The figure for `CC(C)NC(=O)C1CCCN(c2nc3ncn(CC(=O)NC4CCc5ccccc54)c(=O)c3s2)C1` (stereo not given) is 709 s.
As for `c1ccc(-c2nc(-c3cccc(-c4ccn[nH]4)c3)no2)nc1`, the figure is 739 s.
The figure for `Cc1nn(C)cc1CN(C)C(=O)c1ccc(-c2ccccc2)cc1` is 738 s; for `O=C(NCCn1c(=O)n(Cc2ccccc2)c2cccnc21)c1ccoc1` it is 725 s; for `Cc1ccc(CNC(=O)C2(C)CCCN(C(=O)Nc3cccc(Cl)c3C)C2)cc1` (stereo not given) it is 1060 s.
On to `O=C(Nc1ccccc1F)C(=O)c1cn(CC(=O)N2CCCC2)c2ccccc12`, for which the RP-LC retention time turned out to be 974 s.
The figure for `COC(=O)c1ccc(-c2csc(NC(=O)c3c(F)cccc3Cl)n2)cc1` is 945 s; for `COC(=O)c1cccc(NC(=O)CSc2nccc(N3CCN(c4ccccc4OC)CC3)n2)c1` it is 695 s.
Turning to `Cc1nn(C)cc1CN1CCCCC1CCn1cc(-c2ccccc2)nn1` (stereo not given), the RP-LC retention time amounted to 564 s.
As for `Cc1cccc(N2CCN(C(=O)Cn3c(=O)c4nnc(C)n4c4ncccc43)CC2)c1`, the figure is 738 s; as for `CN(CCOc1ccc(CC2SC(=O)NC2=O)cc1)c1ccccn1` (stereo not given), 628 s.
`Cc1nc(S(=O)(=O)N2CCC(C(=O)N3CCN(c4ccc(Cl)cc4)CC3)CC2)cn1C` yielded an RP-LC retention time of 859 s.
As to `CC(C)CC(=O)NC(Cc1ccccc1)c1nnc(N2CCN(C)CC2)o1` (stereo not given), the RP-LC retention time was 621 s.
As for `CCCN1C(=O)c2cc(S(=O)(=O)NCc3ccco3)ccc2Oc2cccnc21`, the figure is 952 s.
As for `Cc1ccccc1NC(=O)N1CCCC1c1nc(-c2ccc(F)cc2F)no1` (stereo not given), the figure is 932 s; as for `O=C(NCc1ccc(N2CCCC2)nc1)c1ccc(Cl)s1`, 634 s.
Compound `O=C(NCc1ccc2c(c1)OCO2)c1nn(-c2ccc(Cl)cc2)nc1CO` came in with an RP-LC retention time of 1010 s.
The compound `Cc1ccc(Cn2cc(-c3ccncc3)cc2C(=O)N2CCN(C3CCCCC3)CC2)cc1` displayed an RP-LC retention time of 602 s.
For `CCc1nccn1Cc1noc(-c2ccccc2C)n1`, the RP-LC retention time stood at 649 s.
As to `CCOCCCNC(=O)c1nnc(-c2ccc(S(=O)(=O)N3CCCC3)cc2)o1`, the RP-LC retention time came to 786 s.
The figure for `O=C(Cc1csc(-n2cccc2)n1)NCCc1c[nH]c2ccccc12` is 840 s.
`Cc1cc(NC(=O)c2nc(C(C)C)oc2C)ccc1Cl` gave an RP-LC retention time of 1250 s.
The figure for `CCc1ccccc1NC(=O)N1CC(n2cc(COCC3CC3)nn2)C1` is 725 s; for `O=C(CSc1ccc(N2CCCC(C(=O)NC3CC3)C2)nn1)Nc1ccc(Cl)cc1` (stereo not given) it is 682 s; for `CCCSCCCNC(=O)Cn1cnc2nc3c(cc2c1=O)CC(C)CC3` (stereo not given) it is 778 s.
Consider `Cc1ccc(-c2nc3n(CC(=O)NC4CCCC4)c4c(c(=O)n3n2)CCC4)cc1`, for which the RP-LC retention time was 789 s.
As for `CC(=O)Nc1ccc2c(c1)CN(C(=O)c1ccccc1F)C(C(=O)N1CCCC1)C2` (stereo not given), the figure is 646 s.
